According to patent US20200239530A1, “COMPOUNDS AND METHODS OF MODULATING PROTEIN DEGRADATION” (Vividion Therapeutics, Inc., priority 2017, published 2020):
Read-outs that look alike come from different tables or passages of the source. Blank lines part the entries; values can stand above or below the molecule they belong to.

Columns and labels:
Assay in all cases: Cysteine liganding, probe competition
Format in all cases: binding
[1] = target: T1, TRIM71 E3 ubiquitin-protein ligase TRIM71 (Homo sapiens, UniProt Q2Q1W2)
T1 construct: Cells were resuspended in cold PBS on ice and sonicated with a probe sonicator to achieve lysis; endogenous in cells
T1 sequence (Q2Q1W2 1-868): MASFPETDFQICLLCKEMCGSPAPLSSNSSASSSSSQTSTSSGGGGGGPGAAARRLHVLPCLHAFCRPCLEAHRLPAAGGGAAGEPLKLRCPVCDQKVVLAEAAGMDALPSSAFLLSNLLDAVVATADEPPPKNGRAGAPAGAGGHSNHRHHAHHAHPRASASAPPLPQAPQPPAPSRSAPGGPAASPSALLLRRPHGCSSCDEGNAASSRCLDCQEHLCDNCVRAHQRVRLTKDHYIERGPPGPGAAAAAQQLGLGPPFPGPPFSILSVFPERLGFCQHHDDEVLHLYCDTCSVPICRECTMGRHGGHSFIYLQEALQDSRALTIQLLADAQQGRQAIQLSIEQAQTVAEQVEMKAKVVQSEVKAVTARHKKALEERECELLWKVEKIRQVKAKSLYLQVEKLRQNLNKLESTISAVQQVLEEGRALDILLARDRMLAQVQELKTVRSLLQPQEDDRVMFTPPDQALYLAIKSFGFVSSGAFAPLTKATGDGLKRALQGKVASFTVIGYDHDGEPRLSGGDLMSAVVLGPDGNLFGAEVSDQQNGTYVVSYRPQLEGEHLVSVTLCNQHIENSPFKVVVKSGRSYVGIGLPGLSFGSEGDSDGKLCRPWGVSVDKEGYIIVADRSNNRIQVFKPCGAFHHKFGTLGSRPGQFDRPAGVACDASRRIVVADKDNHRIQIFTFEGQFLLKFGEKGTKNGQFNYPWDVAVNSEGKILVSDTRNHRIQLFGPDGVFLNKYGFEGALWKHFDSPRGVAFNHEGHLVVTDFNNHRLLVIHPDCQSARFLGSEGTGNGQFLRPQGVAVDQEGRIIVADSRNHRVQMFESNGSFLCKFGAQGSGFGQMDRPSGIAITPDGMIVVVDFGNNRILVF
Method: (§1) Cells were resuspended in cold PBS on ice and sonicated with a probe sonicator to achieve lysis. 200 μL of lysate containing 5 mg/ml proteome was treated with 2 μL of 100× compound stock in a 2-mL deep-well plate. The treated lysate was subsequently incubate at 25° C. for 1 hr with shaking at 600 rpm. The treated lysate was further incubated with 2 μL of 10 mM desthiobiotin iodoacetamide probe at 25° C. for 1 hr with shaking at 600 rpm. Next, the lysate was further treat with 20 μL of solution of PBS containing 11 mM MgSO4 and 2.5% Turbonuclease stock and incubated at 25° C. for 20 minutes with shaking at 600 rpm. 1.7 mL ice-cold acetone was added to each well and incubated at −20° C. for 2 hr, followed by max speed (4200 rpm) spin for 45 min. Acetone was then decanted and the plates were blotted to remove acetone. The plates were then dried in open air for 20 minutes. After drying, the plates were then covered with foil seal and stored at −80° C. overnight.
(§2) The next day, samples were re-suspended in 90 μL of solution of 9M urea, 50 mM ammonium bicarbonate and 10 mM DTT by incubating at 65C for 20 min with shaking at 1500 rpm. Next, samples were cooled to 37° C. and then 10 μL of 500 mM iodoacetamide solution (92.48 mg/ml) was added. The samples were then incubated at 37° C. for 30 min with shaking at 600 rpm.
(§3) ZEBA desalting plates were equilibrated 4 times using 250 μL of 2M urea, 50 mM ammonium bicarbonate solution followed by centrifugation at 1500 rpm for 2 minutes. After equilibration was complete, samples were applied to ZEBA desalting plate and spin at 1500 rpm for 2 min on top of 1 mL 96-well deep-well collection plate to buffer exchange samples. 4 μL of solution containing 25 mM CaCl2 and 0.25 mg/mL trypsin was added to the plate and the plate was then incubated at 37° C. for 2 hrs with shaking at 600 rpm. 300 μL of solution containing 5% high-capacity streptavidin agarose slurry in 25 mM Tris-HCl pH 7.5, 150 mM NaCl, and 0.1% NP-40 then added. The plate was incubated at 25° C. for 2 hrs with shaking at 600 rpm. Samples were transferred to 25 μm filter plate and spin at 1000 rpm for 2 min. Samples were then washed 3 times with 0.75 mL of wash buffer (25 mM Tris-HCl pH 7.5, 150 mM NaCl, and 0.1% NP-40) followed by washing 3 times with 0.75 mL PBS, and then 4 times with 0.75 mL water. After the washing step, samples were eluted into polypropylene 96-well plate by addition of 250 µL of 50% MeCN/water, 0.1% formic acid and allowed to gravity drip for 10 min, followed by centrifugation at 1000 rpm for 2 min. Speedvac was used to dry the plates at about 45° C. for […]. Then the plates were covered with foil seal and stored at −20° C.
(§4) Samples were resuspended by addition of 20 μl of 12.5% ACN, 0.1% formic acid solution, covered with foil seal, and incubated at 42° C. for 10 minutes with shaking at 600 rpm. Then add 30 μL of 0.1% formic acid solution was added and the plate was covered and incubated at 42° C. for 10 minutes with shaking at 600 rpm. Seal plate was then sealed with a 96-well silicon mat for analysis.

[2] = target: ANAPC16 Anaphase-promoting complex subunit 16 (Homo sapiens, UniProt Q96DE5); parameters: endogenous in cells
Method: as §1, §2, §3, §4

[3] = target: T2, RNF25 E3 ubiquitin-protein ligase RNF25 (Homo sapiens, UniProt Q96BH1); parameters: endogenous in cells
T2 sequence (Q96BH1 1-459): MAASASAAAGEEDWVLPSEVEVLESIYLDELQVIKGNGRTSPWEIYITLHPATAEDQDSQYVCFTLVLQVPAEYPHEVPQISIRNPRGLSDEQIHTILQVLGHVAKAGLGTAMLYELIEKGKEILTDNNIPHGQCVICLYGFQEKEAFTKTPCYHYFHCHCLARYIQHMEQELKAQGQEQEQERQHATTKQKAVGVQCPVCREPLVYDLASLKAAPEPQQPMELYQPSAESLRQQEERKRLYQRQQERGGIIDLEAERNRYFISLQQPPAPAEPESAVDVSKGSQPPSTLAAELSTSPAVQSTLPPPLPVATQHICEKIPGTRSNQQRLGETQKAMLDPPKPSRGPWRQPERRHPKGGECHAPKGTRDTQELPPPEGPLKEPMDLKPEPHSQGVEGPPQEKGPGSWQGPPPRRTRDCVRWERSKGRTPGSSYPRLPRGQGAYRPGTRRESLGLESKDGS
Method: as §1, §2, §3, §4

- inhibition at 100 µM ([1]; 100 uM, UniProt Q2Q1W2, read-out: KB05_100 uM_percent_inhibition): 5%
- inhibition at 100 µM ([2]; 100 uM, UniProt Q96DE5, read-out: KB05_100 uM_percent_inhibition): 37%
- inhibition at 500 µM ([2]; 500 uM, UniProt Q96DE5, read-out: KB05_500 uM_percent_inhibition): 83%
- inhibition at 100 µM ([3]; 100 uM, UniProt Q96BH1, read-out: percent_inhibition): 11%
SMILES: C=CC(=O)N(c1ccccc1)c1ccc(Br)cc1 [KB05]

SMILES: O=C(CCl)Nc1cc(C(F)(F)F)cc(C(F)(F)F)c1 [KBO3]
- KB03_100 uM_percent_inhibition ([1]; 100 uM, UniProt Q2Q1W2): 17%
- 100 Max ([1]; uniprot Q2Q1W2): 17.2
- 100 ave ([1]; uniprot Q2Q1W2): 17.2
- 500 Max ([1]; uniprot Q2Q1W2): 64.2
- 500 ave ([1]; uniprot Q2Q1W2): 64.2
- KB03_100 uM_percent_inhibition ([2]; 100 uM, UniProt Q96DE5): 52%
- KB03_500 uM_percent_inhibition ([2]; 500 uM, UniProt Q96DE5): 82%
- 500 Max ([2]; uniprot Q96DE5): 36.5
- 100 Max ([2]; uniprot Q96DE5, unit assumed): 20.4%
- 100 ave ([3]; uniprot Q96BH1): 14.3
- 500 Max ([3]; uniprot Q96BH1): 62.0
- 500 ave ([3]; uniprot Q96BH1): 62.0
- 100 Max ([3]; uniprot Q96BH1, unit assumed): 14.3%

SMILES: COc1ccc2c(c1)CCCN2C(=O)CCl [KB02]
- inhibition at 100 µM ([1]; 100 uM, UniProt Q2Q1W2, read-out: KB02_100 uM_percent_inhibition): 39%
- Liganded ([1]; TRIM71 Res# 636, uniprot Q2Q1W2): YES
- inhibition at 100 µM ([2]; 100 uM, UniProt Q96DE5, read-out: KB02_100 uM_percent_inhibition): 46%
- inhibition at 500 µM ([2]; 500 uM, UniProt Q96DE5, read-out: KB02_500 uM_percent_inhibition): 85%
- Liganded ([2]; ANAPC16 Res# 55, uniprot Q96DE5): YES
- Liganded ([3]; RNF25 Res# 417, uniprot Q96BH1): YES
